According to PMC8058733, “A pain killer without analgesic tolerance designed by co-targeting PSD-95-nNOS interaction and α2-containning GABAARs” (Theranostics, 2021):
Entries after “also recorded” stand apart in the source; their conditions may differ.

Tests used:
[1] = system: locomotor activity; assay: Open field test, locomotor activity; type: in vivo; conditions: mice, 1 h after injection, ZL006-05 60 mg/kg, i.v., diazepam 0.5 mg/kg
Experimental: The locomotor activity was assessed by the open field test as described previously. The apparatus consisted of a large area composed of plastic, surrounded by walls that were 100 cm high. The floor was 50 × 50 cm for mice; the overall illumination was 25 lux. Each animal was gently placed in the center of the open field, and its behavior was videotaped. The distance the animals travelled was measured in a 5-min session using ANY-maze (Stoelting Co., IL, USA). After each trial, the plate was cleaned with 70% EtOH. No stressor was applied to the animals for at least 12 h before the test.

[2] = system: laminae I excitatory neurons in the SDH; assay: mIPSCs/mEPSCs recordings from acute spinal slices of chronically treated rats; type: in vivo, rat; conditions: rats, ZL006-05 0.3 mg/d intrathecal infusion ×11 d
Excerpt: Osmotic minipumps (models 1004 for mouse and 2ML4 for rat; Alzet) and intrathecal cannulas (0.61 mm outer diameter and 0.28 mm inner diameter for mouse, 0.99 mm outer diameter and 0.58 mm inner diameter for rat) were filled with a solution of PBS. Cannulas were inserted into the subarachnoid space through the space between the L5 and L6 vertebrae and the tip of the catheter was implanted at the L5 spinal segmental level.
All solutions were bubbled with 95% O2 -5% CO2.
For mPSCs measurements, whole-cell recordings were made from putative excitatory neurons in superficial dorsal horn using low-resistance pipettes (4-8 MΩ). Before mPSCs measurements, excitatory neurons were distinguished from inhibitory neurons by firing pattern analysis according to the established relationship between neuronal firing pattern and its neurotransmitter phenotype, [32]-[34] For mEPSCs measurement, the membrane potential was held at -60 mV. […] Tetrodotoxin (0.5 μM) and bicuculline (20 μM) were added to block action potentials and GABAA receptor-mediated currents respectively. For mIPSCs measurement, the membrane potential was held at -70 mV, microelectrodes were filled with internal pipette solution containing CsCl 140, HEPES 10.0, MgATP 4.0, NaGTP 3.0, EGTA 1.0, MgCl2 1.0, CaCl2 0.3 (in mM). […]. […] Each recording lasts more than 5 min. Data were analyzed using Mini software. Up to 120 events from each neuron were selected at a fixed sampling interval to generate cumulative probability.

[3] = target: T1, α3β3γ2 GABAARs (Homo sapiens, UniProt P18507+P28472+P34903); assay: Potentiation of GABA-evoked currents, whole-cell patch-clamp in HEK293 cells transiently expressing recombinant GABAARs; type: cell-based; conditions: α3β3γ2
T1 construct: Shanghai Genechem Co.,Ltd (γ2 plasmid); host or cells: HEK293
T1 sequence (P34903 29-492): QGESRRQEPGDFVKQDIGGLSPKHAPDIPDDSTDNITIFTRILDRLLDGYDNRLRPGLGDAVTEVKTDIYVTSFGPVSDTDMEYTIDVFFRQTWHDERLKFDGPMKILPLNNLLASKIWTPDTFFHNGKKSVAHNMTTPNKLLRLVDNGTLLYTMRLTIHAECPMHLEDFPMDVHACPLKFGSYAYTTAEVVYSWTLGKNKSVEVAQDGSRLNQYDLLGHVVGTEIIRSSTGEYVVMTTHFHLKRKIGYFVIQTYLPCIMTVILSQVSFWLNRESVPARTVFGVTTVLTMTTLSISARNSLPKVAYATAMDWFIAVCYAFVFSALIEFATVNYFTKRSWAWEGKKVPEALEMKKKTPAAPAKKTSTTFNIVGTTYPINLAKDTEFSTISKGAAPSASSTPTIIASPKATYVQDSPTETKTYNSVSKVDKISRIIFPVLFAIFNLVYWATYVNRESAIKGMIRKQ
T1 sequence (P28472 26-473): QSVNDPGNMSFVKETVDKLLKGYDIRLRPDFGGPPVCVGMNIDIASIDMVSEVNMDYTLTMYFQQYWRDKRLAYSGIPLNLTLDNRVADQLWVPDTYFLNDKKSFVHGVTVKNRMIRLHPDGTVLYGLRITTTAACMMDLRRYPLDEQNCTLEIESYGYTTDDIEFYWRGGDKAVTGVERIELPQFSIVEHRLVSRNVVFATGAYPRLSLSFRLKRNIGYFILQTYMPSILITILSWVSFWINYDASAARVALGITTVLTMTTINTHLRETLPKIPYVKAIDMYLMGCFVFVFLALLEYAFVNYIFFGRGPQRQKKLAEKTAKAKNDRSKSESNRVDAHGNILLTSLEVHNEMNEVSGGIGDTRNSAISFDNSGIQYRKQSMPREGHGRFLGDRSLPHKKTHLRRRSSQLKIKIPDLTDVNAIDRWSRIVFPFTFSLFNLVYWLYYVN
T1 sequence (P18507 40-475): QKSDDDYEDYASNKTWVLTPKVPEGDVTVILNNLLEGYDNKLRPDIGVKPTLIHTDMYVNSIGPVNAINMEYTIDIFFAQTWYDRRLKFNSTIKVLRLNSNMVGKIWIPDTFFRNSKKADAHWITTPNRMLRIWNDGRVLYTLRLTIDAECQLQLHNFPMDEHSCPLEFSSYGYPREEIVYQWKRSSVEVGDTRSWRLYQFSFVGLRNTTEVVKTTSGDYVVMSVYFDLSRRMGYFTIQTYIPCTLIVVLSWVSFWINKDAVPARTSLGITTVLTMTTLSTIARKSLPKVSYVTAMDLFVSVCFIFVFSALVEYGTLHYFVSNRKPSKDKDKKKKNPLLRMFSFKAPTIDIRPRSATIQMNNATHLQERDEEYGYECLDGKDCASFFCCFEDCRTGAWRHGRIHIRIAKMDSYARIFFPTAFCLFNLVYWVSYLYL
Experimental: (§1) The affinities of drugs for α1, α2, α3 and α5 subunits were studied in the HEK293 cells (from FuHeng Biology, Shanghai, China) transiently expressing recombinant GABAARs (α1β2γ2, α2β3γ2, α3β3γ2 and α5β2γ2) as described previously. Briefly, the HEK293 cells were cultured in MEM medium supplemented with 10% FBS (fetal bovine serum, Gibico), 1% L-glutamine (Gibco) and 1% mycillin (Gibco). Before transfection, the cells were subcultured onto a 3.5cm dish at the ratio of 1:2. Then, the plasmids of α1/α2/α3/α5 (Origene), β2/β3 (Origene) and γ2 (Shanghai Genechem Co.,Ltd ) (5μg total DNA, ratio 1:1:2) were transfected using Fugene®HD transfection reagent (Promega). The γ2 subunit contained GFP from IRES (internal ribosomal entry site) and was used as a marker of the successful transfection. Cells were used for electrophysiology recording 18-36 hours after transfection.
(§2) Electrophysiology recordings from HEK293 cells were performed as described previously. Briefly, whole-cell patch-clamp recordings of GABA-evoked currents were made at 30 °C with the holding potential of -60 mV. The internal solution (solution in recording electrodes) contained (in mM): 120 CsCl, 10 EGTA, 10 HEPES, 4 MgCl2, 0.5 GTP, 2 ATP and pH was adjusted to 7.4 with CsOH and the external solution contained (in mM): 150 NaCl, 10 KCl, 2 CaCl2, 1 MgCl, 10 HEPES, 10 Glucose and pH was adjusted to 7.4 with NaOH. ACSF was bubbled continuously with carbogen (95%O2 and 5%CO2). For the recording of GABA-evoked currents, the slides were transferred to a recording chamber, which was perfused with ACSF at a rate of 4 ml/min. The cells were viewed under upright microscopy (Olympus), and GFP-positive cells were selected to record the currents. The interval time between each different dose of GABA was controlled, 3 to 5 minutes to avoid the desensitization of GABAARs.

[4] = target: T2, α2β3γ2 GABAARs (Homo sapiens, UniProt P18507+P28472+P47869); assay: as above; type: cell-based; conditions: α2β3γ2
T2 construct: Shanghai Genechem Co.,Ltd (γ2 plasmid); host or cells: HEK293
T2 sequence (P47869 29-451): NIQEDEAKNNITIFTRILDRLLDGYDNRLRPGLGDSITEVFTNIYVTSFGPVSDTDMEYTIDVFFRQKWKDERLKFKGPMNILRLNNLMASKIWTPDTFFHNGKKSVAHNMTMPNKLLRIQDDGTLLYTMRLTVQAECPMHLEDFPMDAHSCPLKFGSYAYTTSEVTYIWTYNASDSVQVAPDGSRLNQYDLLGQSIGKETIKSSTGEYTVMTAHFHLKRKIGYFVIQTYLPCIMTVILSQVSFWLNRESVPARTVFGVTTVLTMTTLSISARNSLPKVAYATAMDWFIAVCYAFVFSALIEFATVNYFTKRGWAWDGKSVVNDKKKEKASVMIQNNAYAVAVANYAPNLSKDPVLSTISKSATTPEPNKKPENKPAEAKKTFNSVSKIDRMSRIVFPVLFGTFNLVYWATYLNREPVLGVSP
T2 sequence (P28472 26-473): as the sequence (P28472 26-473) above
T2 sequence (P18507 40-475): as the sequence (P18507 40-475) above
Experimental: as §1, §2

[5] = target: T3, α1β2γ2 GABAARs (Homo sapiens, UniProt P14867+P18507+P47870); assay: as above; type: cell-based; conditions: α1β2γ2
T3 construct: Shanghai Genechem Co.,Ltd (γ2 plasmid); host or cells: HEK293
T3 sequence (P14867 28-456): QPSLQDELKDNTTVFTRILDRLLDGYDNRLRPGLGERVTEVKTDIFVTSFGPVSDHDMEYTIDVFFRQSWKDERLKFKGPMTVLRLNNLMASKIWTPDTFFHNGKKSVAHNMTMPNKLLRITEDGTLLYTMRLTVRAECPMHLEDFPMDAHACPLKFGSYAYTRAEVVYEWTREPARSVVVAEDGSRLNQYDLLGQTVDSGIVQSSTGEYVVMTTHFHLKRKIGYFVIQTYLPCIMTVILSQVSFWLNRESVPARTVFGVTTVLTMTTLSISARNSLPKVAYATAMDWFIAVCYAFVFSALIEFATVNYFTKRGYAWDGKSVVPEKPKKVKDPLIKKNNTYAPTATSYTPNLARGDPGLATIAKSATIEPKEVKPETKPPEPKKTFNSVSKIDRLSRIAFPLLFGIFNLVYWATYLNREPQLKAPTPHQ
T3 sequence (P47870 25-512 limits assumed): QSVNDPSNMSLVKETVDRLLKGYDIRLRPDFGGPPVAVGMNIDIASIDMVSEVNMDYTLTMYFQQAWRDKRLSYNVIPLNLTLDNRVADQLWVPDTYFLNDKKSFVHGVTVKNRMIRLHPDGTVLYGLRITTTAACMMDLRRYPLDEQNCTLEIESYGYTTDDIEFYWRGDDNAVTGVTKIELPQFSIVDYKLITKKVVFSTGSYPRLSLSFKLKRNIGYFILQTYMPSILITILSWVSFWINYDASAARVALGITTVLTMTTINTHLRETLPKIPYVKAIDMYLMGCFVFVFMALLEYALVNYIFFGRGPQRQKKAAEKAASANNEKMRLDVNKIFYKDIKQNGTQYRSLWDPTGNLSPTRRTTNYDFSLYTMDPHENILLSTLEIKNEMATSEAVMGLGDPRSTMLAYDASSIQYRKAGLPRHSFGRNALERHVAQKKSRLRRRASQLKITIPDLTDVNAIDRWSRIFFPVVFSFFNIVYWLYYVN
T3 sequence (P18507 40-475): as the sequence (P18507 40-475) above
Experimental: as §1, §2

## CC1(C)C2CCC1(C)C(OC(=O)c1ccc(NCc3cc(Cl)cc(Cl)c3O)cc1O)C2 (stereo not drawn) [ZL006-05]
[1]
  Locomotor activity, distance travelled during 5 min: had no effect
[2]
  mEPSCs: without affecting mEPSCs
  mIPSCs: significantly increased mIPSCs amplitude
[3]
  Effect on α3GABAAR (in words): low efficacy on α3GABAAR
[4]
  Effect on α2-containing GABAAR (in words): very high affinity to α2-containing GABAAR; also recorded: very high efficacy and potency on α2GABAARs
[5]
  Effect on GABA-evoked currents of α1-containing GABAAR (in words): does not potentiate α1GABAAR
